Drawing on ChEMBL document CHEMBL1909046, “DrugMatrix in vitro pharmacology data”, this text covers IC50 and Ki for 19 molecules.

In one assay the target is T1, Adenosine receptor A1 (Homo sapiens, UniProt P30542).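 Also: radioligand binding assay at the adenosine A1 receptor, with DPCPX serving as the labelled ligand; in other assays of this panel Not Active means under 50% inhibition at 10 µM.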
T1 sequence (P30542 whole entry): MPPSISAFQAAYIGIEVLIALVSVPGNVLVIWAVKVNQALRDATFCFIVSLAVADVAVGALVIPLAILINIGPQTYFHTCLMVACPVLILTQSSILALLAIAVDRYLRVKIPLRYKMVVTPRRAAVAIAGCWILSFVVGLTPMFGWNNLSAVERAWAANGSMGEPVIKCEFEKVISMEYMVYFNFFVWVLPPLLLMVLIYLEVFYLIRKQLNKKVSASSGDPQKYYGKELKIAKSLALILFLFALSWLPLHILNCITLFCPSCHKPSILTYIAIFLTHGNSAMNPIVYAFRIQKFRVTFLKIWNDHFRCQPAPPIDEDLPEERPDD
Type of assay: cell membranes, CHO, Membrane. Conditions: cho.

Assay [1] concerns the target T2, Alpha-2C adrenergic receptor (Homo sapiens, UniProt P18825).
T2 sequence (P18825 whole entry): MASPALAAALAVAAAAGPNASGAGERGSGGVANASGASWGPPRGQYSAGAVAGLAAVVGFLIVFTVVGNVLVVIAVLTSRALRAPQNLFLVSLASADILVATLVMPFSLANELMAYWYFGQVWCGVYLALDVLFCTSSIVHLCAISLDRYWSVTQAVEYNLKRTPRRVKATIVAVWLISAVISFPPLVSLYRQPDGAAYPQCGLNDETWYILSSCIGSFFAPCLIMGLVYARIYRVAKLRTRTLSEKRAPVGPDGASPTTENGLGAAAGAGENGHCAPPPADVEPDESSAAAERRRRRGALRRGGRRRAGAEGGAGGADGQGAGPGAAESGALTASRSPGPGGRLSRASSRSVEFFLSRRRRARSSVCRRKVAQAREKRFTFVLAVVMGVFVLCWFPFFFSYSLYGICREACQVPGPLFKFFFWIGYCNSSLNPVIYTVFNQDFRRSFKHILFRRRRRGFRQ
The assay can be described thus: DRUGMATRIX: Adrenergic Alpha-2C radioligand binding (ligand: [3H] MK-912). Type of assay: cell membranes, Sf9, Membrane. Conditions: for Ki: read-out: Ki.

The target in a further assay is T3, Glucocorticoid receptor (Homo sapiens, UniProt P04150). Also: in other assays of this panel Not Active means under 50% inhibition at 10 µM.
T3 sequence (P04150 whole entry): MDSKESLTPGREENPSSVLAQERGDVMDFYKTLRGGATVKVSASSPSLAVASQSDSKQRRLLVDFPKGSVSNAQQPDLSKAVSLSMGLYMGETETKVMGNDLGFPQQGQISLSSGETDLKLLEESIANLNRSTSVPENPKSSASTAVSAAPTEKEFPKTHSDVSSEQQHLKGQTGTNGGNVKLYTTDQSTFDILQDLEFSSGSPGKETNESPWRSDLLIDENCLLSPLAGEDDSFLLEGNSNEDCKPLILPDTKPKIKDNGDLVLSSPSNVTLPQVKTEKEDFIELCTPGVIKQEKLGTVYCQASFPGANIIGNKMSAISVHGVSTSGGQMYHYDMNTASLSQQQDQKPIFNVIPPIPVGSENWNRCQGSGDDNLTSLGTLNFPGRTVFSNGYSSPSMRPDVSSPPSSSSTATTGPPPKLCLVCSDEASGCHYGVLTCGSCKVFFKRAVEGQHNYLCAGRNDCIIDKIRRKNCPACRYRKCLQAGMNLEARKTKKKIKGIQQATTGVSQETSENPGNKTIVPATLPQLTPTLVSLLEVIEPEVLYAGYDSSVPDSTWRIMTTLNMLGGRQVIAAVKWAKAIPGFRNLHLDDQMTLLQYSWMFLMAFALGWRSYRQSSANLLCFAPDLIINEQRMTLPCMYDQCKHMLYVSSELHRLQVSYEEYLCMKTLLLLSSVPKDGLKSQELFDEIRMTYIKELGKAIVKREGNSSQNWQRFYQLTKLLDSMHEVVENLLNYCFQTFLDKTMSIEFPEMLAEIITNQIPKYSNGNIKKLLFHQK
The settings on record: hela s3.

Assay [2] deals with Vascular endothelial growth factor receptor 1 (Homo sapiens, UniProt P17948). The assay can be described thus: biochemical. The settings on record: huvec. Type of assay: cell-based, HUVEC.
The next assay addresses Insulin receptor (Rattus norvegicus, UniProt P15127). Type of assay: cell membranes, Wistar, Liver, Membrane.
A further assay deals with Acetylcholinesterase (Homo sapiens, UniProt P22303). In words: DRUGMATRIX: Acetylcholinesterase enzyme inhibition (substrate: acetylthiocholine). Format: cell-based, HEK293. The settings on record: Not Active = under 50% inhibition at 10 µM.
The target in assay [3] is Beta-2 adrenergic receptor (Homo sapiens, UniProt P07550). The assay can be described thus: DRUGMATRIX: Adrenergic beta2 radioligand binding (ligand: [3H] CGP-12177). Format: cell membranes, CHO, Membrane. Conditions: cho; Not Active = under 50% inhibition at 10 µM.
Assay [4] deals with Prostaglandin G/H synthase 1 (Homo sapiens, UniProt P23219). The assay can be described thus: biochemical. Format: tissue-based, Platelet.
Prostaglandin G/H synthase 1, sequence (P23219 whole entry): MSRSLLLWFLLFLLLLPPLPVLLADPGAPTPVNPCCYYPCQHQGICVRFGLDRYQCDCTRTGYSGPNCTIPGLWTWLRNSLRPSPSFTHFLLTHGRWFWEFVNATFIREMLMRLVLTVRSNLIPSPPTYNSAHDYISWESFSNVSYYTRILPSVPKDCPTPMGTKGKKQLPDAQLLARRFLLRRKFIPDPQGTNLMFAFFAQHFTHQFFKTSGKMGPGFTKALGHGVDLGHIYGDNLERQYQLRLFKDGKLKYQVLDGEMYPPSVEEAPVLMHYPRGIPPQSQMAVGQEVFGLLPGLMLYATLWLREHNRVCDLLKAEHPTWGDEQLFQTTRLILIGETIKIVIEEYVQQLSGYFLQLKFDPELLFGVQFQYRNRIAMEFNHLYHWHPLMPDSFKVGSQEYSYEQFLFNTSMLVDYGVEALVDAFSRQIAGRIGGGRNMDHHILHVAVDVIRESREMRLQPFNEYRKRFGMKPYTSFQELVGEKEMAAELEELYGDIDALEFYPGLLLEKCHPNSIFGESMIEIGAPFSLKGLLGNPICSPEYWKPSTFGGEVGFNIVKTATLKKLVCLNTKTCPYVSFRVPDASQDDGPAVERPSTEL

Beta-2 adrenergic receptor, sequence (P07550 whole entry): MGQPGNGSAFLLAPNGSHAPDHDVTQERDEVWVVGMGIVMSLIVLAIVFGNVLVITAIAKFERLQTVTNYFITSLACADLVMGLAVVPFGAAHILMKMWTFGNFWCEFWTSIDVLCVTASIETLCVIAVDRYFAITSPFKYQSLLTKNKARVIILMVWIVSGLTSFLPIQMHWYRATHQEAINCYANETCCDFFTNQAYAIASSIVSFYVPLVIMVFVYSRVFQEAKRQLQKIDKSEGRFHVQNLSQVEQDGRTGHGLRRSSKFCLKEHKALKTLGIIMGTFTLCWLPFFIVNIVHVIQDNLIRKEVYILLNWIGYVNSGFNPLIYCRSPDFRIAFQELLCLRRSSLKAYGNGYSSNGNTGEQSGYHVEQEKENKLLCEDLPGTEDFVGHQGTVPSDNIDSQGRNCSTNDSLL
Vascular endothelial growth factor receptor 1, sequence (P17948 whole entry): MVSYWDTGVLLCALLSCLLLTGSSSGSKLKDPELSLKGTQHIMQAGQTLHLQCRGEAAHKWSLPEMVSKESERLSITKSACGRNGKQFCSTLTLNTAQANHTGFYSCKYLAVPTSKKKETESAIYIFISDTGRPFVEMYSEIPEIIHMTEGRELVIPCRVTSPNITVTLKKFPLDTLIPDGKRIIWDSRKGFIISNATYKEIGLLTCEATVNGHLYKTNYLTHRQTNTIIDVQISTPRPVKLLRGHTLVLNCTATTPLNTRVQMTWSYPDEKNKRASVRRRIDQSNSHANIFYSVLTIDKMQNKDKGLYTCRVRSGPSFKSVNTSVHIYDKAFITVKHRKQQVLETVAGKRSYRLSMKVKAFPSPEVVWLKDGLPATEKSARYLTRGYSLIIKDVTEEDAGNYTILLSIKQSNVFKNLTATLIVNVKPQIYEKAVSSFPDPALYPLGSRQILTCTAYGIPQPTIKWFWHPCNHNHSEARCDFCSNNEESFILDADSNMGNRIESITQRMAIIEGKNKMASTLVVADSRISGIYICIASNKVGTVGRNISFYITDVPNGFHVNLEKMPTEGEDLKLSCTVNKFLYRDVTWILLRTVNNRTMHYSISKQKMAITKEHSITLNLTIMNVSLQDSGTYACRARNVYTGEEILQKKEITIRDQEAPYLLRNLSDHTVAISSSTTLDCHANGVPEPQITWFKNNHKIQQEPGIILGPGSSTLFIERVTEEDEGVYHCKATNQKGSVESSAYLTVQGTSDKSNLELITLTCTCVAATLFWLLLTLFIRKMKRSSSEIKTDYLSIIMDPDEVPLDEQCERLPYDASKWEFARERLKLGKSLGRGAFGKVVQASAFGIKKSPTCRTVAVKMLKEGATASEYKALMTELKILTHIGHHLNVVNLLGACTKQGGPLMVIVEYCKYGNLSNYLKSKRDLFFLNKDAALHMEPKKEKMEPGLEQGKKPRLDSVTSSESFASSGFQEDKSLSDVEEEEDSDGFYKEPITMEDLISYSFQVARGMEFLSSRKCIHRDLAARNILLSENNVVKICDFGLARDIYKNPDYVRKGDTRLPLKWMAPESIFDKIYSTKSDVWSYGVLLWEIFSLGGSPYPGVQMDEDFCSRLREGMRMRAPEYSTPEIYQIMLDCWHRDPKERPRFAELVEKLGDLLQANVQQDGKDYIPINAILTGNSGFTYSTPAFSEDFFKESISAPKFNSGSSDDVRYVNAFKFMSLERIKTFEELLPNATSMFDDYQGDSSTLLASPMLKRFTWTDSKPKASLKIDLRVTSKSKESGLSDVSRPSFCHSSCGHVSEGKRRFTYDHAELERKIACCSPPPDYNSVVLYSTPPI
Insulin receptor, sequence (P15127 27-759 limits assumed): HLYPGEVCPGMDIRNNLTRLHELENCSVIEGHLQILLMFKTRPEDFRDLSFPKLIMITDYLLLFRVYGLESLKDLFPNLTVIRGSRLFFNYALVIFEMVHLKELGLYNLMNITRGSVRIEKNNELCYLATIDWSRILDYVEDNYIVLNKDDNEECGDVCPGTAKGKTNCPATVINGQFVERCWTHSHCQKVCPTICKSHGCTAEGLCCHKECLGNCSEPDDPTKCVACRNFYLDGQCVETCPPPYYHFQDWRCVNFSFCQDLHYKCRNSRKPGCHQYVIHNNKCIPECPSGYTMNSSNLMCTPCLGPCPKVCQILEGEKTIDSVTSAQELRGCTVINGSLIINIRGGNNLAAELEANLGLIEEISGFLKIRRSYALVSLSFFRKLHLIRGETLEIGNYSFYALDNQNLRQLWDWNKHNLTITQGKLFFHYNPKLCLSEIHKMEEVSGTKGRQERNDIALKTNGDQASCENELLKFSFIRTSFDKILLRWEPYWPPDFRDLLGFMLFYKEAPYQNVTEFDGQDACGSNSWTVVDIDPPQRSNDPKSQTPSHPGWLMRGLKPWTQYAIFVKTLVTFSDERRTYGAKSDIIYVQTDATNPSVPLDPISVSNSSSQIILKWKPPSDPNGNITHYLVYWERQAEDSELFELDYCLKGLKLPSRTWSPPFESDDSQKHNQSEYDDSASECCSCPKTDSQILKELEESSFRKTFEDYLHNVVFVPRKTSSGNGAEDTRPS
Insulin receptor, sequence (P15127 764-1383 limits assumed): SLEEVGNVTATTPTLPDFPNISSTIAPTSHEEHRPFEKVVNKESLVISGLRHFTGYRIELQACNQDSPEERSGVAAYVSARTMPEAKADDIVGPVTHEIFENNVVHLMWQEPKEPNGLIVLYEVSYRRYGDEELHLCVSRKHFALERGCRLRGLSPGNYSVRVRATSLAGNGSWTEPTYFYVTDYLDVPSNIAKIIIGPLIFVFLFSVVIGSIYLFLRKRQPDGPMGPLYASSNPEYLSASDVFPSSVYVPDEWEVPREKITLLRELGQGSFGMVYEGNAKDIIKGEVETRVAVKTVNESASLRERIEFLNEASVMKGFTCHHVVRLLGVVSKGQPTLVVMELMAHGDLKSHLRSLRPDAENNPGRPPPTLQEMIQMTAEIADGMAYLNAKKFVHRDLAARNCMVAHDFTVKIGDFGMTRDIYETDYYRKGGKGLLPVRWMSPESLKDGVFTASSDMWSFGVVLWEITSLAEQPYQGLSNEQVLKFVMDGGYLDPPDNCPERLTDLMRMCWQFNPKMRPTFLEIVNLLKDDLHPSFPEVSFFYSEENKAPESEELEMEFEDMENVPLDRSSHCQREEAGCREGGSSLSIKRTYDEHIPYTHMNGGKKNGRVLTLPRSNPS
Acetylcholinesterase, sequence (P22303 whole entry): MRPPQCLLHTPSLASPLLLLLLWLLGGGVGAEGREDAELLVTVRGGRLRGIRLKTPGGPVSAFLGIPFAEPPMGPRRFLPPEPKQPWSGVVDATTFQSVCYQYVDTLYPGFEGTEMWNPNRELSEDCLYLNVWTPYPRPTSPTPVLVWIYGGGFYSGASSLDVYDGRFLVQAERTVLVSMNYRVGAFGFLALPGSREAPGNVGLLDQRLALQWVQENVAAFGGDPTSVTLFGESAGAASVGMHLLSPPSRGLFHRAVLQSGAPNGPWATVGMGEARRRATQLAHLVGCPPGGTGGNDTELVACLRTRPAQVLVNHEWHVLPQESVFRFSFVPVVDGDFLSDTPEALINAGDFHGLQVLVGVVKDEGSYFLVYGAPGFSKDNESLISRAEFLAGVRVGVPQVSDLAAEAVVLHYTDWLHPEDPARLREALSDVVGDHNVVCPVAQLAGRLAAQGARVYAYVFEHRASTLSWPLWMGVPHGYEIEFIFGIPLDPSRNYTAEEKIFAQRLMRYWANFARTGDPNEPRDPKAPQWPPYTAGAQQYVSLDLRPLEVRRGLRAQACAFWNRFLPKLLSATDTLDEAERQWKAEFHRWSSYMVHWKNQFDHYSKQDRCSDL

For the molecule `Cc1c(C)c2c(c(C)c1O)CCC(C)(CN1CCN(c3cc(N4CCCC4)nc(N4CCCC4)n3)CC1)O2` (stereo not drawn), the IC50 result (on Adenosine receptor A1; in assay [1] (sf9); against Glucocorticoid receptor; in assay [2]; at Insulin receptor; against Acetylcholinesterase (hek293)) was “Not Active” each time. The IC50 entry in assay [3] and in assay [4] (platelet) was “Not Active” throughout.

For `COc1ccc(CCN(C)CCCC(C#N)(c2ccc(OC)c(OC)c2)C(C)C)cc1OC` (stereo not drawn), the IC50 result (against Adenosine receptor A1; in assay [1] (sf9); in assay [2]; against Insulin receptor; against Acetylcholinesterase (hek293); in assay [3]) was “Not Active” throughout. Also, the IC50 entry in assay [4] (platelet) is “Not Active”.

Regarding `CC(C)Cc1ccc([C@@H](C)C(=O)O)cc1` [(R)-IBUPROPHEN], the IC50 entry (on Adenosine receptor A1; in assay [1] (sf9); at Glucocorticoid receptor; in assay [2]; against Insulin receptor; against Acetylcholinesterase (hek293)) was “Not Active” each time. In addition, the IC50 entry in assay [3] and in assay [4] (platelet) was “Not Active” throughout.

With `CN(C)CCOC(c1ccccc1)c1ccccc1` [DIPHENHYDRAMINE], the IC50 result (on Adenosine receptor A1; in assay [1] (sf9); against Glucocorticoid receptor; in assay [2]; against Insulin receptor; at Acetylcholinesterase (hek293)) was “Not Active” each time. Besides, the IC50 entry in assay [3] and in assay [4] (platelet) was “Not Active” in each case.

In the case of `Clc1ccc(COC(Cn2ccnc2)c2ccc(Cl)cc2Cl)cc1` (stereo not drawn) [ECONAZOLE], the IC50 result is “Not Active” in assay [1] (sf9); “Not Active” on Glucocorticoid receptor; “Not Active” in assay [2]; “Not Active” on Insulin receptor; 13700 nM at Acetylcholinesterase (read-out: IC50); “Not Active” in assay [3]. The IC50 entry in assay [4] (platelet) was “Not Active”.

Take `CCN(CC)CCOc1ccc(/C(=C(/Cl)c2ccccc2)c2ccccc2)cc1` [ENCLOMIPHENE]: the concentration for half-maximal inhibition (IC50) entry against Adenosine receptor A1 is “Not Active”; in assay [1] (read-out: IC50), 1480 nM; against Glucocorticoid receptor, “Not Active”; in assay [2] it was “Not Active”; at Insulin receptor it was “Not Active”; against Acetylcholinesterase (hek293) it was “Not Active”. In addition, the IC50 entry was “Not Active” in assay [3] and 346 nM in assay [4] (read-out: IC50). Moreover, the Ki in assay [1] worked out at 215 nM.

As for `Cc1ccc(NC(=O)c2ccc(CN3CCN(C)CC3)cc2)cc1Nc1nccc(-c2cccnc2)n1` [IMATINIB], the IC50 entry (at Adenosine receptor A1; in assay [1] (sf9); against Glucocorticoid receptor; on Insulin receptor; against Acetylcholinesterase (hek293); in assay [3]) was “Not Active” in each case. The IC50 result in assay [4] (platelet) is “Not Active”.

For `CC(C)Oc1ccc2c(=O)c(-c3ccccc3)coc2c1` [IPRIFLAVONE], the half-inhibitory concentration (IC50) result (against Adenosine receptor A1; in assay [1] (sf9); on Glucocorticoid receptor; in assay [2]; at Insulin receptor; at Acetylcholinesterase (hek293)) was “Not Active” throughout. Further, the Ki entry in assay [3] is reported as “Not Active”.

As to `CC(C)NCC(O)c1ccc(O)c(O)c1` (stereo not drawn) [ISOPROTERENOL], the IC50 result (against Adenosine receptor A1; in assay [1] (sf9); against Glucocorticoid receptor; in assay [2]; against Insulin receptor; against Acetylcholinesterase (hek293)) was “Not Active” each time. Further, the IC50 result in assay [4] (platelet) is “Not Active”.

Consider `C[C@H]1C[C@@H]2[C@H]([C@@H](O)C[C@@]3(C)[C@H]2CC[C@]3(O)C(=O)CO)[C@@]2(C)C=CC(=O)C=C12` [METHYLPREDNISOLONE], for which the IC50 entry (against Adenosine receptor A1; in assay [1] (sf9); in assay [2]; at Insulin receptor; against Acetylcholinesterase (hek293); in assay [3]) was “Not Active” in each case. The IC50 result in assay [4] (platelet) is reported as “Not Active”.

As to `Cc1cccc(C)c1OCC(C)N` (stereo not drawn) [MEXILETINE], the IC50 result (on Adenosine receptor A1; in assay [1] (sf9); in assay [2]; on Insulin receptor; against Acetylcholinesterase (hek293); in assay [3]) was “Not Active” each time. In assay [4] (platelet), the IC50 entry was “Not Active”.

`CC[C@@H](C(=O)[C@@H](C)[C@@H](O)[C@H](C)[C@@H]1O[C@@H]([C@@H](CC)C(=O)O)CC[C@@H]1C)[C@H]1O[C@]2(C=C[C@@H](O)[C@]3(CC[C@@](C)([C@H]4CC[C@](O)(CC)[C@H](C)O4)O3)O2)[C@H](C)C[C@@H]1C` [SALINOMYCIN]: the concentration for half-maximal inhibition (IC50) entry (against Adenosine receptor A1; in assay [1] (sf9); in assay [2]; at Insulin receptor; at Acetylcholinesterase (hek293); in assay [3]) was “Not Active” in each case. In addition, in assay [4] (platelet), the IC50 result is “Not Active”.

For the molecule `O=C(Oc1ccccc1C(=O)O)c1ccccc1O` [SALSALATE], the IC50 result (against Adenosine receptor A1; in assay [1] (sf9); in assay [2]; against Insulin receptor; against Acetylcholinesterase (hek293); in assay [3]) was “Not Active” throughout. For the same molecule, the IC50 entry in assay [4] (platelet) is listed as “Not Active”.

On to `CN[C@H]1CC[C@@H](c2ccc(Cl)c(Cl)c2)c2ccccc21` [SERTRALINE], for which the IC50 entry (against Adenosine receptor A1; against Glucocorticoid receptor; in assay [2]; against Insulin receptor; against Acetylcholinesterase (hek293); in assay [3]) was “Not Active” each time. The IC50 result in assay [4] (platelet) is recorded as “Not Active”.

Consider `CC(C)NCC(O)c1ccc(NS(C)(=O)=O)cc1` (stereo not drawn) [SOTALOL], for which the IC50 result (on Adenosine receptor A1; in assay [1] (sf9); against Glucocorticoid receptor; in assay [2]; on Insulin receptor; against Acetylcholinesterase (hek293)) was “Not Active” each time. The IC50 entry in assay [4] (platelet) is “Not Active”.

In the case of `O.O.O.O.O.O.[Cl-].[Cl-].[Sr+2]` [STRONTIUM CHLORIDE HEXAHYDRATE], the IC50 result (against Adenosine receptor A1; in assay [1] (sf9); in assay [2]; at Insulin receptor; at Acetylcholinesterase (hek293); in assay [3]) was “Not Active” throughout. In addition, the IC50 entry in assay [4] (platelet) was “Not Active”.

For the molecule `COc1cc2nc(N3CCN(C(=O)C4CCCO4)CC3)nc(N)c2cc1OC` (stereo not drawn) [TERAZOSIN], the half-maximal inhibitory concentration (IC50) entry (on Adenosine receptor A1; against Glucocorticoid receptor; in assay [2]; on Insulin receptor; against Acetylcholinesterase (hek293); in assay [3]) was “Not Active” throughout. In addition, the IC50 result in assay [4] (platelet) is on record as “Not Active”.

In the case of `Cn1c(=O)c2nc[nH]c2n(C)c1=O.O` [THEOPHYLLINE], the IC50 entry (in assay [1] (sf9); in assay [2]; against Insulin receptor; on Acetylcholinesterase (hek293); in assay [3]; in assay [4] (platelet)) was “Not Active” throughout.

Regarding `Clc1ccccc1CN1CCc2sccc2C1` [TICLOPIDINE], the IC50 entry against Adenosine receptor A1 was “Not Active”; in assay [1] (read-out: IC50) it was 1170 nM; in assay [2], “Not Active”; against Insulin receptor it was “Not Active”; against Acetylcholinesterase (hek293), “Not Active”; in assay [3] it was “Not Active”. Further, the IC50 entry in assay [4] (platelet) was “Not Active”. In assay [1], the Ki worked out at 171 nM.

The IC50 is the concentration that gives 50% inhibition. One may read the Ki as a dissociation constant, usually derived from enzyme kinetics or from competition with a known ligand.
